The nature of this data set: Dissolution of IPBC in MPEG-350/DMSO versus PEG-400/DMSO. It counts as physicochemical. Conditions: 60% IPBC solution. As to the method: In a 100 ml beaker is added about 25 ml of solvent, and the weight is recorded to four significant digits. The beaker is heated to 40-60° C. (depending on the active being tested) in a water bath. The solute of interest is added stepwise (all aliquot weights are recorded to four significant digits) until saturation is achieved. Once the solid remains undissolved, back-titration with known weights of solvent are performed until the solution is clear.
This example compares the viscosity and VOC content of 55 and 60% IPBC formulations in MPEG-350/DMSO and PEG-400/DMSO. For the 55% IPBC solutions, 10% DMSO is used. For the 60% solutions, only 10% DMSO is required for complete dissolution of the IPBC when MPEG is used, however, 15% DMSO is required for complete dissolution of the IPBC when PEG 400 is used. Viscosity and VOC data are in Table 6.

Data on one compound can be found in patent publication US20100286217A1, “STABLE, LOW VOC, LOW VISCOUS BIOCIDAL FORMULATIONS AND METHOD OF MAKING SUCH FORMULATIONS” (priority 2008, published 2010).

Take `CCCCNC(=O)OCC#CI` [IPBC, 3-iodo-2-propynyl butyl carbamate]: the “DMSO required for complete dissolution of the IPBC” value runs as follows: (MPEG used) 10%; (PEG 400 used) 15%.
